According to US8895625B2, “Protective effect of thymoquinone in sepsis” (King Saud University, priority 2009, dated 2014):

Legend:
[1] = system: sepsis induced by E. coli bacteria; test: Immunological serum analyses (ELISA) following E. coli administration; assay type: in vivo, mice; conditions: 6 h after E. coli administration
Procedure: (§1) In another set of experiments and after 6 h of E. coli administration, animals were lightly anesthetized with ether, and blood samples were collected, centrifuged and the resultant plasma were stored at −80° C. and used within 48 h. The levels of TNF-α, IL-1α, IL-2 and IL-10 were determined using an ELISA technique. Important biochemical parameters including blood serum creatinine, blood urea nitrogen, alanine transferase (ALT), albumin, and total lactate dehydrogenase (LDH) and creatinine kinase (CK) were also assessed in treated animals using commercially available kits according to the manufacturer's directions.

E. coli (ATCC-25992) = test: Gram-negative bacteria sepsis model (E. coli challenge), survival by Kaplan-Meier; assay type: in vivo, mice; conditions: followed 2 days, P<0.01
Procedure: 1.2 Gram-Negative Bacteria Sepsis Model
Two groups of animals (twelve mice each) weighing ˜25 g were treated intraperitoneally with 0.75 or 1 mg/kg/day (for three days) of thymoquinone prepared in 10% DMSO; a control group (treated with only 10% DMSO) was also simultaneously run. Four hours after thymoquinone treatment, all groups were challenged with 2 μl/g E. coli (ATCC-25992, […] CFU/ml) prepared in normal saline. Mortality in treated groups was followed for 2 days, and survival (primary endpoint) was calculated using Kaplan-Meier analysis.

[2] = system: parental and multidrug resistant tumor cells; conditions: cited from earlier work
[3] = system: endotoxin (lipopolysaccharide, LPS Escherichia coli O111:B4) induced sepsis; test: Endotoxin sepsis model (LPS challenge), survival by Kaplan-Meier; assay type: in vivo, mice; conditions: 4 h before 2 mg/kg LPS, followed 4 days, P<0.01
Procedure: 1.1 Endotoxin Sepsis Model (LPS Escherichia coli O111:B4)
Two groups of animals (ten mice each) weighing ˜25 g were treated intraperitoneally with 1 or 2 mg/kg (single dose) of thymoquinone prepared in 10% DMSO; a control group (treated with only 10% DMSO) was also simultaneously run. Four hours after thymoquinone treatment, all groups were challenged with 2 mg/kg endotoxin (lipopolysaccharide, LPS) prepared in normal saline. Mortality of groups was followed for 4 days, and survival (primary endpoint) was calculated using Kaplan-Meier analysis.

[4] = system: sepsis caused by E. coli bacteria; test: Biochemical blood analyses following E. coli administration; assay type: in vivo, mice; conditions: 6 h after E. coli administration
Procedure: as §1

[5] = PROWESS trial, compared to placebo; cited from earlier work
[6] = cited from earlier work

With `CC1=CC(=O)C(C(C)C)=CC1=O` [thymoquinone, 2-isopropyl-5-methyl-1,4-benzoquinone] the TNF-α level ([1]; FIG. 5A) was “Significant reductions”, the IL-1α level ([1]; FIG. 5B) was “Significant reductions” and the IL-2 level ([1]; FIG. 5C) was “Significant reductions”. For the same compound, the IL-10 level ([1]; FIG. 5D) was “Significant reductions”, the “protection efficacy against mortality in sepsis induced by Gram-negative bacteria” value (E. coli (ATCC-25992); 0.75 mg/kg/day i.p. for three days) was “about 90%” and the “protection efficacy against mortality in sepsis induced by Gram-negative bacteria” value (E. coli (ATCC-25992); 1 mg/kg/day i.p. for three days) was “about 90%”. For the same compound, the “cytotoxicity to parental and multidrug resistant tumor cells” value [2] was “cytotoxic”, the “protection efficacy against mortality in endotoxin induced sepsis” value ([3]; 1 mg/kg i.p. single dose) was “about 80%” and the “protection efficacy against mortality in endotoxin induced sepsis” value ([3]; 2 mg/kg i.p. single dose) was roughly 90%. The “blood urea nitrogen (kidney dysfunction biomarker)” value ([4]; FIG. 4A) was “Important reductions”, the “serum creatinine (kidney dysfunction biomarker)” value ([4]; FIG. 4B) was “Important reductions” and the “alanine transferase (liver dysfunction biomarker)” value ([4]; FIG. 4C) was “Important reductions”. For the same compound, the plasma albumin level ([4]; FIG. 4D) was “improvement in albumin level”, the “total creatinine kinase (marker of tissue injury)” value ([4]; FIG. 4E) was “Important reductions” and the “total lactate dehydrogenase (marker of tissue injury)” value ([4]; FIG. 4F) was “Important reductions”.
For drotrecogin alfa, the “absolute decrease in mortality rate” value [5] is listed as 6%, the “relative risk reduction (mortality)” value [5] is listed as 19% and the “efficacy in sepsis patients” value ([6]; patients with a low risk of death or pediatric patients) is listed as “not effective”. For the same compound, the 28-day mortality rate ([6]; subgroup with recent surgery and single-organ dysfunction, placebo 14.1%, P=0.03) was 20.7%.
